The experiment relates to C2C12 cell line. Nature of the experiment: Dexamethasone-induced sarcopenia model in differentiated C2C12 myotubes, diameters of the myotubes (H&E stain, Image-Pro Plus). Format: cell-based, mouse. The following applies: 10 μM dexamethasone alone in 0.1% DMSO, 24 hours, C2C12 myotubes (negative control group). The text has this: Mouse skeletal myocytes (i.e., C2C12 cell line) were utilized to establish a sarcopenia model. An artificially synthetic corticosteroid, dexamethasone was utilized to establish the sarcopenia model. Dexamethasone could inhibit the immune system and thus was utilized as an anti-inflammation drug or an allergy drug. […] Thus, dexamethasone was used to induce muscular dystrophy for simulating sarcopenia in this Example. First, a growth medium [Dulbecco's modified minimal essential medium (DMEM) including 10% fetal bovine serum] was utilized to culture the C2C12 cell line under 37° C., 5% CO2, in which the start density of the C2C12 cell line was 1×10^5 to 2×10^5 cells/mL. […] The diameters of the myotubes were measured by using a commercial software (Image-Pro Plus software), and the results of statistical analysis on the diameters of the myotubes were shown in Table 1, in which the statistic method used to analyze the percentage of each items was paired sample t-test, and the symbols “#” and “*” represented significant differences compared to the blank control group and negative control group (p<0.05, n=60), respectively.

Marks after values point to notes of the source that are not given here.

On to `C[C@@H]1C[C@H]2[C@@H]3CCC4=CC(=O)C=C[C@]4(C)[C@@]3(F)[C@@H](O)C[C@]2(C)[C@@]1(O)C(=O)CO` [dexamethasone], for which the “Diameters of the myotubes” value is on record as 19.98 ± 6.42# μm.

These data come from patent US20220118037A1, “METHOD FOR IMPROVING SARCOPENIA BY USING PHELLINUS LINTEUS” (GRAPE KING BIO LTD, priority 2020, published 2022).
